This note sets out measurements from US8865672B2, “Prevention of tissue ischemia and related methods” (The United States of America, as represented by the …, priority 2006, dated 2014).

Assay [1] deals with myosin light chain-2 (MLC) in HAVSMC. The assay is described as follows: Myosin light chain phosphorylation in VSMC. The class given is cell-based, human. The note with it: S1P 100 nM, DEA/NO 10 μM, TSP1 2.2 nM. The protocol: VSMC were plated at 90% confluence and grown in smooth muscle growth media containing 2% FBS overnight. To stimulate MLC phosphorylation, sphingosine-1-phosphate (SIP; Biomol International, Plymouth, Pa.) was added at a final concentration of 100 nM. The nitric oxide donor DEA/NO was added at a final concentration of 10 μM. For TSP1 pretreatment, cells were incubated with 2.2 nM TSP1 before addition of SIP or DEA/NO. Cells were subsequently washed twice with PBS and lysed immediately in 1×SDS sample buffer containing 10 μg/mL leupeptin, 10 μg/mL aprotinin, 1 mM Na3VO4, and 40 mM NaF. Lysates prepared in the SDS sample buffer described above were electrophoresed in 4-12% BisTris NuPAGE gels and transferred to PVDF membranes prior to immunoblotting with rabbit polyclonal antibodies against myosin light chain-2 (MLC) and phospho-MLC2 (T18/S19, Cell Signaling Technology, Danvers, Mass.).

In assay [2] the test system is white hairless Yucatan miniature pig VSMC. As to the kind of experiment: Porcine VSMC adhesion assay. The class given is cell-based. To be noted: TSP1 0.022-2.2 nM. The procedure: White hairless Yucatan miniature pig VSMC were plated at 10,000 cells/well onto 96-well plates (Maxisorb, Nunc) precoated with type I collagen (3 μg/ml). Cells were incubated for 1 h in basal medium (lacking additives and serum) with 0.1% BSA and the indicated concentrations of TSP1 and DEA/NO. Plates were then washed with PBS, fixed with glutaraldehyde, stained with crystal violet, and washed. Absorbed stain was solubilized with acetic acid from fixed cells and the resulting color signal determined on a MR580Microelisa Auto Reader, (Dynatech, Alexandria, Va.) at 450 nm wavelength. In other experiments cell were treated with a CD47 or mismatch control morpholino as described for 48 h prior to harvesting.

The subject of a further assay is murine ASMC (CD47 null). The assay is described as follows: Murine ASMC proliferation. In kind it is cell-based, mouse. The note with it: CD47 null MASMC. The protocol:
(§1) Murine ASMC were obtained from aortic segments harvested sterilely from C57B1/6 CD47 null or CD36 null mice as described (Ray et al., Methods Cell Sci 23:185-188, 2001) and cultured in SM-GM (Cambrex)+20% FCS. In the case of CD36 null cells, culture flasks were pre-coated with 1% gelatin prior to cell plating. Wild type C57B1/6 ASMC cultures were prepared as previously described (Isenberg et al., Matrix Biol 24:110-123, 2005). Cell culture purity was determined by immunohistochemistry staining for α-smooth muscle actin. Cells were used within passage 1 to 4 to minimize overgrowth of other cell types.
Proliferation of vascular cells was measured with a non-radioactive colorimetric assay (CellTiter 96, Promega, Madison, Wis.). Briefly, to each well of a 96-well culture plate (Nunc, Denmark) 5×10^3 cells were suspended in 100 μl of culture medium with indicated treatments and incubated for 72 hours at 37° C. in a 5% CO2 atmosphere. Following incubation 20 μl of tetrazolium compound/solubilization agent was added and incubation continued for 4 hours under the same conditions. The plate was then read on a MR580 Microelisa Auto Reader (Dynatech) at a wavelength of 490 nm. Appropriate zero time controls were run for all assays and the optical density readings obtained then subtracted from those obtained at 72 hours.

Assay [3] has as its system murine ASMC (WT, CD36 null, CD47 null). As to the kind of experiment: Murine ASMC adhesion on type I collagen. In kind it is cell-based, mouse. The note with it: CD47 null MASMC. The procedure: as §1
Cell adhesion was carried out in 96-well culture plates. After pre-coating wells with type I collagen (3 μg/ml in DPBS) harvested cells were plated at a density of 1×10^4 cells/well in medium plus 0.1% BSA and treatment agents and incubated in 5% CO2 for 1 h. Wells were washed with PBS and cells fixed with 1% glutaraldehyde for 10 min., washed and stained with 1% crystal violet for 20 min. Excess stain was rinsed away, adherent cells treated with 10% acetic acid, and plates read at 570 nm.

A further assay deals with HAVSMC. As to the kind of experiment: Actin cytoskeleton staining (F-actin) in HAVSMC. In kind it is cell-based, human. The protocol:
VSMC were grown on glass well slides (Lab-Tek, Nunc) under standard growth conditions. Cells were incubated at 37° C. for 1 hour in serum and additive deficient growth medium and the indicated treatment agents, after which the media was removed and the cells were fixed in 4% paraformaldehyde in PBS (pH 7.4, Fisher Scientific) for 15 minutes at room temperature. After washing with DPBS, cells were permeabilized for 5 minutes in 0.1% Triton X-100 in PBS and then blocked in M199E/2% BSA for 30 min at room temperature. Cells were stained for F-actin with 1 unit/200 μl medium/1% BSA of Oregon Green 488 phalloidin (Molecular Probes). Slides were imaged using an Olympus IX70 microscope and photographed at constant exposure and gain. In other experiments VSMC were plated on 24-well culture plates (Nunc, Denmark) in smooth muscle growth medium (50,000 cells/well) and weaned from serum and additives over 24 hours. Cell treatment was performed with the indicated agents in plain medium with 0.1% BSA for 5 minutes. Wells were processed as described above. Following staining with phalloidin cells were incubated in methanol for 30 minutes, samples aliquoted to 96-well black plates and fluorescence read at 520 nm (excitation 495 nm). Data was normalized to total protein. Results represent the mean±SD of at least three separate experiments.

The next assay has as its system human platelets. As to the kind of experiment: cGMP in human platelets. The class given is cell-based. The procedure: (§2) Fresh human platelets at 2×10^5 platelets/μl in Tyrode's buffer or PRP were pre-incubated with the indicated agents for 15 minutes and then challenged with DEA/NO for the indicated time interval at room temperature and total cGMP determined via immunoassay (Amersham, GE Healthcare, Buckinghamshire, UK). Murine WT and TSP1-null platelets were treated with DEA/NO and cGMP flux measured.

For assay [4], the system named is murine WT and TSP1-null platelets. As to the kind of experiment: cGMP in murine platelets. The class given is cell-based, mouse. To be noted: WT and null platelets, TSP1 2.2 nM. The procedure: After induction of general anesthesia with isoflurane 2%, age and sex matched C57BL/6 WT and TSP1-null mice underwent cardiac puncture. Blood was aspirated into 1 cc syringes with a 25 gauge needle containing 100 μl heparin (Heparin Lock Flush, Abbott, Chicago, Ill.), mixed with 100 μl 3% ACD and centrifuged in 1.2 ml S-Monovette separation tubes (Sarstedt, Germany). PRP was aspirated off, centrifuged, and the resulting platelet pellet was resuspended in 200 μl of Tyrode's buffer.
as §2

As to “TSP1: thrombospondin-1 prepared from human platelets”, the “MLC dephosphorylation induced by NO” value in assay [1] is reported as “partially restored MLC phosphorylation”. Moreover, the “NO-stimulated adhesion to type I collagen” value in assay [2] was “inhibited”. The NO-stimulated proliferation result with murine ASMC (CD47 null) is on record as “did not inhibit”. Further, the NO-stimulated adhesion entry is “only moderately inhibited” in assay [3] (22 nM) and “had no effect” in assay [3] (concentrations up to 2.2 nM). Moreover, in the assay on HAVSMC (DEA/NO 10 μM), the NO-induced actin disassembly result is on record as “completely prevented actin disassembly by NO”. Also, the “disassembly of S1P-induced F actin by NO” value in the assay on HAVSMC (S1P 100 nM, DEA/NO 10 μM) is “attenuated”. Moreover, in the assay with HAVSMC (agent alone (TSP1 2.2 nM, S1P 100 nM)), the F-actin levels result is reported as “slightly increased F-actin levels”. Further, in the assay on human platelets (PRP, TSP1 2.2 nM), the “NO-stimulated cGMP flux in platelets” value is “continued to block”. For the same substance, the “NO stimulated cGMP in platelets” value in the assay with human platelets (washed human platelets in Tyrode's buffer) is “decreased”. Further, the “NO-driven flux in platelet cGMP” value in assay [4] was “decreased the NO-driven flux in platelet cGMP”.
